Laboratory results from the supplement of paper PMC10307832.

What was measured:
Experiment in all cases: relative viability (nuclei count vs DMSO), 5 days (fraction); higher = more cells survive
[1] = compound: C[C@]12O[C@H](C[C@]1(O)CO)n1c3ccccc3c3c4c(c5c6ccccc6n2c5c31)CNC4=O [Lestaurtinib] + O=C(c1cc(Cc2n[nH]c(=O)c3ccccc23)ccc1F)N1CCN(C(=O)C2CC2)CC1 [Olaparib] (partner 8 µM)
Method in brief: (§1)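 Cells from lung cancer lines were seeded into 1536-well plates and, one day later, dosed by pin tool. Treatments were either a single drug or a fixed dose of an anchor drug with five library-drug doses (not always all listed) in √10 steps. After 5 days, nuclei were stained in a one-step fixation (final 0.05% Triton X-100, 1% formaldehyde, 1 ug/ml Hoechst) and counted on 4× images, and relative viability is the treated-to-vehicle nuclei ratio, as the median of duplicate plates.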

[2] = compound: C1=CC(=CC=C1C2=CC(=C(S2)NC(=O)N)C(=O)N)F [TPCA-1] + CC(=O)c1c(C)c2cnc(Nc3ccc(N4CCNCC4)cn3)nc2n(C2CCCC2)c1=O [Palbociclib] (partner 0.5 µM)
Method in brief: as §1

[3] = compound: C1=CC(=CC=C1C2=CC(=C(S2)NC(=O)N)C(=O)N)F [TPCA-1] + COc1cccc2cc(-c3nc([C@H]4CC[C@H](C(=O)O)CC4)n4ncnc(N)c34)[nH]c12 [OSI-027] (partner 0.5 µM)
Method in brief: as §1

[4] = compound: C1/C(=C\C2=CC=CS2)/C(=O)/C(=C/C3=CC=CS3)/C1 + Nc1ncn([C@H]2C[C@H](O)[C@@H](CO)O2)c(=O)n1 [Decitabine] (partner 2 µM)
Method in brief: as §1

## UMC-11
[1]; first compound 0.005 µM
  relative viability: 0.402
[1]; first compound 0.01581 µM
  relative viability: 0.466
[1]; first compound 0.05 µM
  relative viability: 0.384
[1]; first compound 0.1581 µM
  relative viability: 0.273
[1]; first compound 0.5 µM
  relative viability: 0.171
[2]; first compound 0.04 µM
  relative viability: 0.354
[2]; first compound 0.1265 µM
  relative viability: 0.316
[2]; first compound 0.4 µM
  relative viability: 0.299
[2]; first compound 1.265 µM
  relative viability: 0.408
[2]; first compound 4 µM
  relative viability: 0.289
[3]; first compound 0.04 µM
  relative viability: 0.536
[3]; first compound 0.1265 µM
  relative viability: 0.337
[3]; first compound 0.4 µM
  relative viability: 0.466
[3]; first compound 1.265 µM
  relative viability: 0.4
[3]; first compound 4 µM
  relative viability: 0.234
[4]; first compound 0.2 µM
  relative viability: 0.752
[4]; first compound 0.6325 µM
  relative viability: 0.653
[4]; first compound 2 µM
  relative viability: 0.637
[4]; first compound 6.325 µM
  relative viability: 0.513
[4]; first compound 20 µM
  relative viability: 0.515
